From US8969332B2, “Aryloxy dihalopropenyl ether compounds and uses thereof” (Sinochem Corporation, priority 2011, dated 2015)
Where two headings read alike, the source gives them in different places.

Experiments:
armyworm = assay: Insecticidal activity against armyworm in greenhouse (airbrush spraying of corn leaf discs); format: in vivo; conditions: 72 h; for control of the armyworm: 600 mg/L; for mortality at 10 µg/mL / mortality at 100 µg/mL: Mythimna separata, foliar; for mortality at 10 µg/mL / mortality at 100 µg/mL / Mortality of armyworm (%): parallel determination
Method: (§1) Compounds were dissolved in mixed solvent (acetone:methanol=1:1), and diluted to required concentration with water containing 0.1% of tweed 80.
The method of spraying by airbrush: The corn leaves were made into plates of 2 cm diameter by use of punch. A test solution (0.5 ml) was sprayed by airbrush at the pressure of 0.7 kg/cm^2 to both sides of every plate. 10 Second instar larvae were put into the Petri-dishes after the leaf disc air-dried and 3 replicates were set thr each treatment. Then the insects were maintained in observation room (25° C., 60˜70% R.H.). Scores were conducted and mortalities were calculated after 72 h.

diamond back moth [1] = assay: Insecticidal activity against diamond back moth in greenhouse (airbrush spraying of cabbage leaf discs); format: in vivo; conditions: Plutella xylostella, foliar, 72 h, read-out: Mortality of diamond back moth (%)
Method: as §1
The method of spraying by airbrush: The cabbage leaves were made into plates of 2 cm diameter by use of punch. A test solution (0.5 ml) was sprayed by airbrush at the pressure of 0.7 kg/cm^2 to both sides of every plate. 10 Second instar larvae were put into the petri-dishes after the leaf disc air-dried and 3 replicates were set for each treatment. Then the insects were maintained in observation room (25° C., 60˜70% R.H.), Scores were conducted and mortalities were calculated after 72 h.

Prodenia litura = conditions: 500 ppm; cited from earlier work
Heliothis virescens = conditions: 100 ppm; cited from earlier work
beet armyworm [2] = assay: Insecticidal activity against beet armyworm (24 well-plate artificial diet emulsion method); format: in vivo; conditions: Spodoptera exigua, 72 h, read-out: Mortality of beet armyworm (%)
Method: as §1
24 well-plate artificial diet emulsion method: artificial food was added to each well of the 24 well-plate, after the artificial food was cooled, the prepared solution were added into the 24 well-plate according to the experimental design by order of chemical concentrations from low to high, by gently shaking the even emulsion film can be formed on the surface of the diet. 24 neat and healthy larvae were put into the 24 well-plate (one larvae each well) after the film was air-dried and 3 replicates were set for each treatment. Then the insects were maintained in observation room (25° C., 60˜70% R.H.). Scores were conducted and mortalities were calculated after 72 h.

housefly = assay: Insecticidal activity against housefly (diet incorporation test); format: in vivo; conditions: Musca domestica, 72 h, read-out: Mortality of housefly (%)
Method: Diet Incorporation Tests: the test compound was dissolved with 90% acetone to obtain the mother liquor after weigh accurately with an electronic balance. The required concentration solution was got by diluting to the mother liquor with a certain concentration milk powder solution according to the designed doses in the experiment. Then, the diluted concentration solution was evenly put into the petri dishes with diameter of 6 cm inside which filter paper was placed by using a transferring-liquid gun ([…], solution each petri dish). Finally the 3rd instars of larvae were put into petri dishes with 10 each petri dish, and 3 replicates were set for each treatment. Then the insects were maintained in observation room (25° C., 60˜70% R.H.). Scores were conducted and mortalities were calculated after 72 h.

beet armyworm [3] = assay: Field trial against beet armyworm on cabbage; format: in vivo, Laphygma exigua; conditions: 105 g a.i./hm^2, 10% EC
Method: The trial was carried out in rain shelter area of experimental field of Wuhan vegetable research institute, the test crop is cabbage (variety: Jingfeng NO. 1). The dosage of the invention compound 1 (Example 11, 10% EC, same as below) are 75, 105, 150 g a.i./hm^2. and the comparative agent pyridalyl (10% EC, commercially available, same as below) is 105 g a.i./hm^2. The agent was applied on 9 Oct. 2011. The application tool is Linong 16HD-400 type backpack spray. Evenly spraying to whole cabbage which is in rosette stage was conducted. Beet armyworm is mainly larvae. The plot area is 25 m^2 and 4 replicates and randomized block arrangement were set. The amount of spray liquid is 750 L/hm^2. It was sunny and there was no wind, with the highest temperature of 28° C. and the lowest of 15° C. on the day of the application. Chosen 10 plants from each plot and scored the larvae at different instars at fixing time. The base number was investigated before treatment. The number of living larvae was counted after 1 day, 3 days, 7 days and 14 days respectively after application and control efficacy was calculated.
(§2) Calculation Method: Decrease rate of insects (%)=(the number of insects before application−the number of insects after application) the number of insects before application×100 Control efficacy (%)=(decrease rate of insects in treated area decrease rate of insects in blank comparative area)/(100−decrease rate of insects in blank comparative area)×100

diamond back moth [4] = assay: Field trial against diamond back moth on cabbage; format: in vivo, Plutella xylostella; conditions: 105 g a.i./hm^2, 10% EC
Method: as §2
The trial was carried out in the test filed of Shenyang Research Institute of Chemical industry Ltd. The trial crop is cabbage (Variety: Zhonggan NO 8.). The dosage of the compound 1 are 75, 105, 150 g a.i./hm^2 and comparative agent pyridalyl is 105 g a.i./hm^2. The agent was applied once on 13 Jun. 2011. The application tool is Shandongweishi WS-16P type backpack manual sprayer. Evenly spraying to whole cabbage which is in rosette stage was conducted. Diamond back moth is originated at the peak time. The plot area is 10 m^2, 3 replicates and randomized block arrangement were set. The amount of spray liquid is 750 L/hm^2. It was sunny with the highest temperature of 29° C., and the lowest of 17° C. on the day of the application of the spray. The methods of investigation and calculation are the same as Example 13.

[5] = system: cabbage butterfly (Pierisrapae Linne); assay: Field trial against cabbage butterfly; format: in vivo; conditions: 105 g a.i./hm^2, 10% EC
Method: as §2
The trial was carried out in a farmer's vegetable field in Xiangcheng District Suzhou City. The variety of the cabbage is Xinxia 50. The dosage of the compound 1 are 75, 105, 150 g a.i./hm^2 and the comparative agent pyridalyl is 105 g a.i./hm^2. The agent was applied on 26 May 2011. The application tool is Singaporean Linong HD-400 type backpack spray. Evenly spraying to whole cabbage which is at vegetative growth phase was conducted, Cabbage butterfly is at a peak time of 1-3 instars of larvae. The plot area is 15 m^2, 4 replicates and randomized block arrangement were set. The amount of spray liquid is 750 L/hm^2. It was from sunny to cloudy with the highest temperature of 22.6° C., and the lowest of 17.8° C. on the day of the application of the spray. Chosen 10 plants from each plot and scored the larvae at different instars at fixing time. The base number was investigated before treatment. The number of living larvae was counted after 1 day, 4 days, 7 days and 12 days respectively after application and control efficacy was calculated.
Calculation method: the same as Example 13.

[6] = 6.25 mg/L, parallel determination
[7] = 25 mg/L, parallel determination
[8] = 50 mg/L, parallel determination

SMILES: ClC(Cl)=CCOc1cc(Cl)c(OCCCOc2ccc(Oc3ccccc3)cc2)c(Cl)c1 [Compound 38]
- control of the armyworm (armyworm): 100%

SMILES: Fc1cc(Cl)cnc1Oc1ccc(OCCCOc2c(Cl)cc(OCC=C(Cl)Cl)cc2Cl)cc1 [Compound 3]
- control of the armyworm (armyworm): 100%

SMILES: ClC(Cl)=CCOc1cc(Cl)c(OCCCOc2ccc(OCc3cnc(Cl)s3)cc2)c(Cl)c1 [Compound 80]
- control of the armyworm (armyworm): 100%

SMILES: ClC(Cl)=CCOc1cc(Cl)c(OCCCOc2ccc(Oc3nc4ccc(Cl)cc4o3)cc2)c(Cl)c1 [Compound 219]
- control of the armyworm (armyworm): 100%
- mortality at 10 µg/mL (armyworm; 10 mg/L): 70%
- mortality at 100 µg/mL (armyworm; 100 mg/L): 100%

SMILES: FC(F)(F)c1ccc(Oc2ccc(OCCCOc3ccc(OCC=C(Cl)Cl)cc3Cl)cc2)nc1 [Compound 83]
- control of the armyworm (armyworm): 100%

SMILES: FC(F)(F)c1cnc(Oc2ccc(OCCCOc3c(Cl)cc(OCC=C(Cl)Cl)c(Cl)c3Cl)cc2)c(Cl)c1 [Compound 118]
- control of the armyworm (armyworm): 100%

SMILES: CC(C)(C)n1ncc(Oc2ccc(OCCCOc3c(Cl)cc(OCC=C(Cl)Cl)cc3Cl)cc2)c(Cl)c1=O [Compound 57]
- control of the armyworm (armyworm): 100%

SMILES: FC(F)(F)c1cnc(Oc2ccc(OCCCOc3c(Cl)cc(OCC=C(Cl)Cl)cc3Cl)cc2Cl)c(Cl)c1 [Compound D-1, reference compound]
- mortality at 6.25 µg/mL (diamond back moth [1]; [6]): 0%
- mortality at 25 µg/mL (diamond back moth [1]; [7]): 30%
- mortality at 50 µg/mL (diamond back moth [1]; [8]): 80%
- mortality at 10 µg/mL (armyworm; 10 mg/L): 30%
- mortality at 100 µg/mL (armyworm; 100 mg/L): 90%
- control against Prodenia litura (Prodenia litura): above 80%
- control on Heliothis virescens (Heliothis virescens): above 80%

SMILES: FC(F)(F)c1ccc(OCCCOc2c(Cl)cc(OCC=C(Cl)Cl)cc2Cl)nc1 [Compound D-2, pyridalyl, reference compound]
- mortality at 6.25 µg/mL (diamond back moth [1]): 50%
- mortality at 25 µg/mL (diamond back moth [1]): 75%
- mortality at 50 µg/mL (diamond back moth [1]): 90%
- mortality at 2.5 µg/mL (beet armyworm [2]): 16.7%
- mortality at 10 µg/mL (beet armyworm [2]): 100%
- mortality at 10 µg/mL (housefly): 0%
- mortality at 20 µg/mL (housefly): 25%
- Control efficiency (%) (beet armyworm [3]; 1 day after treatment): 70.76%
- Control efficiency (%) (beet armyworm [3]; 3 days after treatment): 83.34%
- Control efficiency (%) (beet armyworm [3]; 7 days after treatment): 78.33%
- Control efficiency (%) (beet armyworm [3]; 14 days after treatment): 61.21%
- Control efficacy (%) (diamond back moth [4]; 1 day after treatment): 95.1%
- Control efficacy (%) (diamond back moth [4]; 3 days after treatment): 97.0%
- Control efficacy (%) (diamond back moth [4]; 7 days after treatment): 94.9%
- Control efficiency (%) ([5]; 1 day after treatment): 49.7%
- Control efficiency (%) ([5]; 4 day after treatment): 84.3%
- Control efficiency (%) ([5]; 7 day after treatment): 88.5%
- Control efficiency (%) ([5]; 12 days after treatment): 75.8%

SMILES: Fc1cccc(Cl)c1COc1ccc(OCCCOc2c(Cl)cc(OCC=C(Cl)Cl)cc2Cl)cc1 [Compound 72]
- control of the armyworm (armyworm): 100%

SMILES: FC(F)(F)c1cnc(Oc2ccc(OCCCOc3c(Cl)cc(OCC=C(Cl)Cl)cc3Cl)cc2)c(Cl)c1 [Compound 2]
- mortality at 6.25 µg/mL (diamond back moth [1]; [6]): 75%
- mortality at 25 µg/mL (diamond back moth [1]; [7]): 100%
- mortality at 50 µg/mL (diamond back moth [1]; [8]): 100%

SMILES: FC(F)(F)c1cnc(Oc2ccc(OCCCOc3ccc(OCC=C(Cl)Cl)cc3Cl)cc2)c(Cl)c1 [Compound 84]
- control of the armyworm (armyworm): 100%

SMILES: ClC(Cl)=CCOc1cc(Cl)c(OCCCOc2ccc(Oc3nc(Cl)c(Cl)cc3Cl)cc2)c(Cl)c1 [Compound 11]
- control of the armyworm (armyworm): 100%

SMILES: FC(F)(F)c1ccc(Oc2ccc(OCCCOc3c(Cl)cc(OCC=C(Cl)Cl)c(Cl)c3Cl)cc2)nc1 [Compound 117]
- Mortality of armyworm (%) (armyworm; 10 mg/L): 100%
- Mortality of armyworm (%) (armyworm; 100 mg/L): 100%
- control of the armyworm (armyworm): 100%
